Results as given in patent US20240245633A1, “ROR Gamma Agonists as Enhancers of Protective Immunity” (University of Florida Research Foundation, Incorporated, priority 2015, published 2024).
Marks after values point to notes of the source that are not given here.

Tests used:
RORγt LBD = target: T1, RORγt LBD (Homo sapiens, UniProt P51449); test: Differential HDX-MS of RORγt LBD ± compounds; format: binding
T1 construct: 5 μL of a 10 μM RORγt LBD solution (Apo or in complex with 10-excess compound)
T1 sequence (P51449 269-508 limits assumed): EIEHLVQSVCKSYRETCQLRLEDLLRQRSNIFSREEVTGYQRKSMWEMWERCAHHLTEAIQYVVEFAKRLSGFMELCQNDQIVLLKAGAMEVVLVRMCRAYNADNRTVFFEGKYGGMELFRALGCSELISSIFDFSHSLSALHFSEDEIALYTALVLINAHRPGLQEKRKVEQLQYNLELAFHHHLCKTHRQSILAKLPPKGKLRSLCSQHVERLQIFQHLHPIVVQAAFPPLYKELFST
From the text: While the mechanism of action of RORγt agonists on regulation of the immune checkpoint receptor PD-1 is unclear, a correlation between RORγt and PD-1 expression has been observed in PD-1 knockout mice Z Regardless, to gain insights into the structural mechanism for agonist activity we examined the impact of putative agonist ligands on the conformational dynamics of RORγt. To achieve this, we utilized differential hydrogen/deuterium exchange (HDX) mass spectrometry.
HDX-MS. Solution-phase amide HDX was performed with a fully automated system as described previously with minor modifications^30,31. For differential HDX experiments, 5 μL of a 10 μM RORγt LBD solution (Apo or in complex with 10-excess compound) was diluted to 25 μL with D20-containing HDX buffer, and incubated at 4° C. for; 10 s, 30s, 60s, 900s, and 3,600s, Following on-exchange, unwanted forward or back exchange is minimized and the protein is denatured by dilution to 50 μL with 0.1% TFA in 3M urea (held at 4° C., pH 2.5). Samples are then passed across an immobilized pepsin column (prepared in house) at 50 μL min−1 (0.1% TFA, 15° C.) and the resulting peptides are trapped onto a Ce trap cartridge (Thermo Fisher, Hypersil Gold). Peptides were then gradient eluted (4% CH3CN to 40% CH3CN, 0,3% formic acid over 5 minutes, 4° C.) across a 1 mm×50 mm Cia HPLC column (Hypersil Gold, Thermo Fisher) and electrosprayed directly into a high resolution orbitrap mass spectrometer (Exactive, Thermo Fisher). Percent deuterium exchange values for peptide isotopic envelopes at each time point were calculated and processed using HDX Workbench^32 and overlaid onto RORγt crystal structures using pyMOL (DeLano Scientific). HDX data is presented as an average of three individual replicates across […] time points (10s, 60s, 300s, 900s, and 3600s).

Gal4-RORγ [1] = target: T2, Gal4-RORγ (Homo sapiens, UniProt P51449); conditions: 30 μM, 2 μM ursolic acid
T2 sequence (P51449 269-508 limits assumed): T1 sequence (P51449 269-508 limits assumed)

Gal4-RORγ [2] = target: T2, Gal4-RORγ; test: cell-based; conditions: HEK-293T, read-out: fold induction of reporter gene expression
EL4 cells = test: PD-1 surface expression in EL4 cells by flow cytometry; format: cell-based, murine; conditions: compound 48 hr
Experimental: Using flow cytometery surface PD-1 expression was analyzed to determine if the decrease in gene expression of PD-1 correlates to a decrease of the protein on the cell surface, Cell: surface PD-1 expression was measured in murine and human T cell lines as well as in ex vivo differentiated murine TH17 cells. […] Next we examined the impact of compound treatment on differentiated murine TH17 cells. […] To determine if there was an increase in the active T cell population during TH17 cell differentiation, the population of CD62L^−PD1^− double negative cells was measured using flow cytometry. […] To determine if the effects of SR0987 on PD-1 expression would be observed in a human cell line, Jurkat T cells were treated with the compound.
Gene expression and Cell sorting. Jurkat T cells were pre-incubated with compounds for 48 hr and activated with phorbol 12-myristate 13-acetate (PMA, 50 ng/mL; Sigma) and ionomycin (1 μg/mL; Sigma) for 5 hr. For qPCR, mRNA was isolated with an RNeasy midi kit using DNase I (Qiagen), and cDNA was synthesized with high capacity cDNA Reverse Transcription kit (Applied Biosystems). IL17A, PD-1, and granzyme B gene expression were normalized to the expression of GAPDH. The sequence of primers used in this study are found in Table 2. For cell sorting, activated Jurkat T cells were stained with APC conjugated anti-human PD-1 antibody (eBioscience). […]

Gal4-RORγ [3] = target: T2, Gal4-RORγ; parameters: RORγt activity after pre-treatment; fold induction of reporter gene expression; other: single concentration 30 μM; induction of luciferase expression at highest concentration of the concentration response curve; other: 30 μM, 2 μM urs; luciferase reporter gene expression; conditions: recently identified putative endogenous agonist; cited from earlier work

CC(C)=CCC[C@@H](C)[C@H]1CC[C@H]2[C@@H]3CC=C4C[C@@H](O)CC[C@]4(C)[C@H]3CC[C@]12C [desmosterol]
Differential HDX kinetics, peptide TEIEHLVQSVC (RORγt LBD; 268-278, charge 2, H1): −1(4)* | Differential HDX kinetics, peptide TEIEHLVQSVCXS (RORγt LBD; 268-280, charge 3, H1): 0(5)* | Differential HDX kinetics, peptide TEIEHLVQSVCKSYRETCQ (RORγt LBD; 268-286, charge 2, H1): −5(3) | Differential HDX kinetics, peptide LRLEDL (RORγt LBD; 287-292, charge 2, H2): −5(4)* | Differential HDX kinetics, peptide RLEDLL (RORγt LBD; 288-293, charge 2, H2): −6(3) | Differential HDX kinetics, peptide RLEDLLRQRSNIFSRE (RORγt LBD; 288-303, charge 4, H2/H3): −10(4) | Differential HDX kinetics, peptide WERCAHHLTEAIQ (RORγt LBD; 317-329, charge 2, H4): −5(1)* | Differential HDX kinetics, peptide WERCAHHTEAIQY (RORγt LBD; 317-330, charge 3, H4): −4(1)* | Differential HDX kinetics, peptide WEGAKRLSGF (RORγt LBD; 331-341, charge 2, H4/H5): −1(1)* | Differential HDX kinetics, peptide AKRLSGF (RORγt LBD; 335-341, charge 2, H4/H5): −1(2)* | Differential HDX kinetics, peptide CQNDQVL (RORγt LBD; 345-352, charge 1, H5/H6): 0(1)* | Differential HDX kinetics, peptide VRMCRAYNAENRTVF (RORγt LBD; 363-377, charge 3, H6/B1): −7(2) | Differential HDX kinetics, peptide CRAYCAONRTVF (RORγt LBD; 366-377, charge 2, B1): −5(2) | Differential HDX kinetics, peptide FEGKYGGMEL (RORγt LBD; 373-387, charge 2, B2/H7): −6(3) | Differential HDX kinetics, peptide FRALGCSE (RORγt LBD; 386-398, charge 2, H7/H8): −4(3)* | Differential HDX kinetics, peptide LISSIFDFSHSLSAL (RORγt LBD; 395-410, charge 2, H8): −4(2)* | Differential HDX kinetics, peptide ISSIFD (RORγt LBD; 397-402, charge 1, H8): −4(2)* | Differential HDX kinetics, peptide ISSIFDFSHSL (RORγt LBD; 397-407, charge 2, H8): −4(2)* | Differential HDX kinetics, peptide ISSIFDSHSLSAL (RORγt LBD; 397-410, charge 2, H8): −4(2)* | Differential HDX kinetics, peptide DFSHSLSAL (RORγt LBD; 402-410, charge 1, H8): −5(3) | Differential HDX kinetics, peptide FSHSLSAL (RORγt LBD; 403-410, charge 2, H8): −4(3)* | Differential HDX kinetics, peptide HFSEDEIAL (RORγt LBD; 411-419, charge 2, H9): −1(1)* | Differential HDX kinetics, peptide LAFHHHLCKTHRQSL (RORγt LBD; 448-463, charge 4, H10): −3(2)* | Differential HDX kinetics, peptide AKLPFXGKLRSLCSQ (RORγt LBD; 464-478, charge 3, H11): −12(4) | Differential HDX kinetics, peptide HVERLQFQHLHPIVVQ (RORγt LBD; 479-495, charge 2, H11): −12(4) | Differential HDX kinetics, peptide QFQHLHPIVVQ (RORγt LBD; 484-495, charge 2, H11): −6(4)* | Differential HDX kinetics, peptide AAFPPLYXEL (RORγt LBD; 495-505, charge 2, H12): −2(4)* | Differential HDX kinetics, peptide AAFPPLYZELF (RORγt LBD; 496-506, charge 2, H12): −3(3)* | HDX kinetics in helix 12 (H12) (RORγt LBD; RORγt LBD ± compound): No statistically significant change in HDX kinetics | Differential HDX kinetics, peptide TEIEHLVQ (RORγt LBD; charge 2, H1, percent deuterium exchange difference): −2(5)* | induction of luciferase expression at highest concentration of the concentration response curve (Gal4-RORγ [1]): ~2 fold | fold induction at 30 µM (Gal4-RORγ [2]): ≥ 2 | surface expression of PD-1 (EL4 cells): no effect | restoring RORγt activity in the presence of ursolic acid (Gal4-RORγ [3]): capable of restoring RORγt activity in the presence of ursolic acid
